# Test results taken from article PMC2628307 (Journal of the American Chemical Society, 2008).
# Where “and” joins values, the source holds several entries; their conditions need not be identical. Equal values may be shown once. Where a name gives a salt, the structure may show the parent alone. Read-outs that look alike come from different tables or passages of the source.
# Columns and labels:
# PP1γ [1] = biological target: T1, PP1γ (Homo sapiens, UniProt P36873); format: biochemical; details: for activity as PP1γ substrate: pH 8
# PP1 [2] = biological target: PP1 (Homo sapiens, UniProt P36873); assay: Kinetic isotope effects of PP1-catalyzed hydrolysis; format: biochemical; details: 25 °C, pH 7.0
# [3] = Dianion H2O attack, 95° C; cited from earlier work
# PP1 H125A mutant = PP1 H125A mutant (Homo sapiens, UniProt P36873, H125A); assay: 4NPP hydrolysis by PP1 H125A mutant; format: biochemical
# calcineurin = details: cited from earlier work
# [4] = system: native PTPs YopH, VHR, and PTP1; details: cited from earlier work
# [5] = 25 °C; cited from earlier work
# PP1γ [6] = biological target: T1, PP1γ
# PP1 [7] = details: tighter binding peptide substrate; cited from earlier work
# alkaline phosphatase = details: cited from earlier work
# T1 sequence (P36873 whole entry): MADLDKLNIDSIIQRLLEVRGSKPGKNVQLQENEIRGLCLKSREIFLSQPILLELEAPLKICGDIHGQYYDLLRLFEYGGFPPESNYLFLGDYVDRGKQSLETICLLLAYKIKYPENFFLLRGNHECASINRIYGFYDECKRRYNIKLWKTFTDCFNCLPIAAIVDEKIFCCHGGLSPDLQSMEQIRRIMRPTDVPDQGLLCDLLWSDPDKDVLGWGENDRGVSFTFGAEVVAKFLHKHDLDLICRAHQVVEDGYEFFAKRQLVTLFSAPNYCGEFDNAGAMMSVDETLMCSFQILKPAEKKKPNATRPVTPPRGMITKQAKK
# Chain of PP1 (Homo sapiens, UniProt P36873) (P36873 whole entry): as above
# Chain of PP1 H125A mutant (P36873 2-323 H125A): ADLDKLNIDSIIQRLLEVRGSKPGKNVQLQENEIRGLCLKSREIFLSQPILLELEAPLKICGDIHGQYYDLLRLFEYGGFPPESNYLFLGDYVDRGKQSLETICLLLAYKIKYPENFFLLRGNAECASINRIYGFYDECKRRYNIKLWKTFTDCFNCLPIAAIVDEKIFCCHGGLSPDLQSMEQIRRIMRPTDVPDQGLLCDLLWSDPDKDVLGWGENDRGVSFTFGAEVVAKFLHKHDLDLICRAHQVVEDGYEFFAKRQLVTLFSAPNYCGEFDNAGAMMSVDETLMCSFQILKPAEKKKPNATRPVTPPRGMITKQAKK
structure (smiles),measurement,setting,value
"O=[N+]([O-])c1ccc(O)cc1 [4-nitro, p-nitrophenol]",pKa,physchem,7.01
COP(=O)(O)Oc1ccc([N+](=O)[O-])cc1 [4-nitrophenyl methyl phosphate],activity as PP1γ substrate,PP1γ [1],significant activity
O=[N+]([O-])c1ccc(OS(=O)(=O)O)cc1 [4-nitrophenyl sulfate],activity as PP1γ substrate,PP1γ [1],little activity
O=[N+]([O-])c1ccc(OP(O)(O)=S)cc1 [4-nitrophenyl thiophosphate],activity as PP1γ substrate,PP1γ [1],little activity
"O=[N+]([O-])c1ccc(OP(=O)(O)O)cc1 [4NPP, 4-nitrophenyl phosphate]",^18knonbridge,PP1 [2],0.9959 (4)
same,^18knonbridge per atom,PP1 [2],0.9986 (4)
same,change in rate of hydrolysis with viscosigens,PP1γ [1]; 20% sucrose or glycerol,no changes
same,^15k,[3],1.0028(2)
same,^18knonbridge,[3],0.9994 (5)
same,^18knonbridge per atom,[3],0.9998 (5)
same,activity for 4NPP hydrolysis,PP1 H125A mutant,no detectable activity
same,^18(V/K)nonbridge,calcineurin; calcineurin with Mg^2+ at the active site,0.9910
same,^18(V/K)nonbridge,calcineurin; calcineurin with Mn^+2 at the active site,0.9942
same,^15k,[4],0.9999-1.0001
same,^18knonbridge,[4],0.9998-1.0003 and 1.0118-1.0152
same,^18knonbridge per atom,[4],0.9999-01.0001
same,pseudo-first order rate constant of water reaction of the dianion,[5],2e-09 s⁻¹
O=P(O)(O)O [inorganic phosphate],Ki,"PP1γ [6]; pH 8, 4NPMP hydrolysis, compared with Ki for the 4NPP reaction",same Ki
same,Ki,"PP1γ [6]; pH 8.0, 4NPP hydrolysis, competitive inhibition, equation 2",1200 ± 200 µM
same,Ki,PP1 [7],1600 ± 900 µM
same,Ki,alkaline phosphatase,~1 µM
